Test results from patent US20070167408A1, “NOVEL ALKYL PHOSPHOLIPID DERIVATIVES WITH REDUCED CYTOTOXICITY AND USES THEREOF” (ZENTARIS GmbH, priority 2005, published 2007).
In brackets after ≈: the same amount, converted by molar mass.

Key:
Type in all cases: cell-based
[1] = system: RKOp21 (human colon adenocarcinoma) cells; assay: XTT cytotoxicity assay, RKOp21 cells; details: 31.6 μM, second set of experiments
Outline: (§1)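 Cells recovered 24 h after plating, then exposed to compounds for 48 h at 37 °C; one set used 10 semi-log concentrations from 100 μM, another 31.6 μM final for PC3 and RKOp21. XTT-PMS added for 3 h, formazan absorbance at 490 nm versus untreated cells; IC50 from inhibition curves.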

[2] = system: SKOV-3 (human ovary adenocarcinoma) cells; assay: XTT cytotoxicity assay, SKOV-3 cells
Outline: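 Exponentially growing SKOV-3 cells recovered 24 h after plating, then received freshly diluted compounds for 2 days of continuous exposure. Viability was read by formazan formation after 3 h with XTT-PMS at 37° C., 5% CO2. IC50 came from inhibition curves.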

[3] = system: PC3 (human prostate carcinoma) cells; assay: XTT cytotoxicity assay, PC3 cells; details: 31.6 μM, second set of experiments
Outline: as §1

[4] = system: Trypanosoma cruzi (Tulahuan-LACZ amstigotes in PEM); assay: In vitro drug activity assay, protozoon A; details: amastigotes in murine peritoneal macrophages, 3 days
Protocol: In vitro activity of selected compounds of the invention against different protozoa was assessed as follows.
Murine (CD1) peritoneal macrophages were harvested 24 hours after starch induction and dispensed into 96-well plates at a concentration of 4×10^5 mL. After 24 hours, the cells were infected with Trypanosoma cruzi Tulahuan LAC-Z amastigotes (grown and cultured according to Buckner et al., Infection and Immunity 1999, 67(1): 403-409). 24 hours later, the infected cells were exposed to the test compounds (compounds of the invention as well as known prior art compounds) for 3 days and 50 μL of 500 μM CPRG-1% Nonidet P-40 was added to each well. The plates were read after 2 to 5 hours at 570 nm (Buckner et al., Antimicrobial Agents and Chemotherapy 1996, 40(11): 2592-2597). ED50 values were calculated with Msxlfit (IDBS).
The following protozoa were assessed: • A) Trypanosoma cruzi (Tulahuan-LACZ amstigotes in PEM, Lorente S O et al., Antimicrobial agents and chemotherapy 2004, 48(8): 2937-2950; Buckner et al., Infection and Immunity 1999, 67(1): 403-409; Buckner et al., Antimicrobial Agents and Chemotherapy 1996, 40(11): 2592-2597) • B) Trypanosoma brucei rhodesiense (strain STIB900, Lorente S O et al., Antimicrobial agents and chemotherapy 2004, 48(8): 2937-2950; Habtemariam S, BMC Pharmacology 2003, 3:6) • C) Plasmodium falciparum (strain K1, Korsinczky M et al., Antimicrobial agents and chemotherapy 2000, 44(8): 2100-2108; Thaitong S and Beale G H, Trans. R. Soc. Trop. Med. Hyg. 1981, 75: 271-273; Trager W and Jensen J B, Science 1976, 193: 673-675) • D) Plasmodium faiciparum (strain 3D7, Mu et al., PLoS Biology 2005, 3(10): e335)

SMILES: CCCCCCCCCCCCCCCCOP(=O)([O-])OCC[N+](C)(C)C [miltefosine, hexadecylphosphocholine, reference compound]
- inhibition at 31.6 µM ([1]; Homo sapiens, read-out: RKOp21 % INH [31.6 μM]): 64%
- inhibition at 100 µM ([2]; Homo sapiens, SK-OV-3, second set of experiments, read-out: SKOV-3 % INH [100 μM]): 74.7%
- inhibition at 31.6 µM ([3]; Homo sapiens, PC-3, read-out: PC3 % INH [31.6 μM]): 67.4%
- ED50 (μg/mL), protozoon A [4]: 0.63 µg/mL (≈ 1.55 µM)

SMILES: CCCCCCCCCCCCCCCCOP(=O)([O-])OCC[N+]1(C)CCCCC1 [Compound 2, Phosphoric acid hexadecyl ester 2-(1-methyl-piperidin-1-yl)-ethyl ester]
- RKOp21 % INH [31.6 μM] [1]: 38.8%
- SKOV-3 % INH [100 μM] ([2]; second set of experiments): 19.5%
- PC3 % INH [31.6 μM] [3]: 50.1%
- ED50 (μg/mL), protozoon A [4]: 0.50 µg/mL (≈ 1.12 µM)
